Results taken from article PMC3702540, “Sphingosine Kinase Activity Is Not Required for Tumor Cell Viability” (PLoS ONE, 2013).

Legend:
mSPHK1 = mSPHK1 (Mus musculus, UniProt Q8CI15); assay: Biochemical SPHK activity, 33P incorporation into S1P; design: species or system murine; conditions: biochemical assay
Description: (§1) A biochemical assay was used to measure the incorporation of ^33P-radiolabeled phosphate from ATP into S1P. Reactions were performed in 96-well polystyrene high-binding microplates (Greiner) in a volume of 60 µl. Reaction mixtures contained 50 mM HEPES (pH 7.5), 3 mM MgCl2, 10 mM NaF, 1 µM ATP, 0.75 µCi of [γ-33P]ATP, 1.11 µM sphingosine (Biomol International) in the presence of either 0.005% Triton X-100 (SPHK1) or 0.0025% NP-40 (SPHK2). Enzymatic reactions were initiated by adding 30 nM of sphingosine kinase in the presence of 2 mM dithiothreitol (DTT). Reactions were terminated after 50 min at 30°C by adding 30 µL 7.5 M Guanidine HCl. Plates were then washed three times with 200 µl PBS before 50 ul of scintillate was added to each well. The assay was quantified by counting in a Packard TopCount (Perkin Elmer).

human cell lines = assay: Cellular SPHK activity, C17 S1P levels, summary for human cell lines; format: cell-based
A375 = assay: 72 h viability assay (CellTiter-Glo); format: cell-based; conditions: Homo sapiens, A-375, A375 (Skin), inflection point of titration curve
Description: (§2) Cell lines were obtained from ATCC and cultured in Dulbecco’s Modification of Eagle’s Medium (Corning® cellgro 10-013) supplemented with 5% FBS and 1% P/S or in Minimum Essential Medium (Corning® cellgro® 10-010) supplemented with 10% FBS, 0.1 mM MEM Nonessential Amino Acids (Corning® cellgro 25-025), 1.0 mM sodium pyruvate (Corning® cellgro 25-000) and 1% P/S. Cells were seeded at a density of 5000 cells per well in 96-well cell culture plates on day1. Media was changed with or without serum and dosed with compound on Day 2. On day5 the Cell Viability assay was performed with CellTiter-Glo® Reagent (Promega) according to the manufacturers instruction.
(§3) S1P has been reported to be important for tumor cell viability, and reduction of intracellular S1P levels has been associated with greater cellular sensitivity to pro-apoptotic stress, [7]. Compounds A and B were used to test this hypothesis experimentally. A panel of cell lines likely to be sensitive to SPHK inhibition was assembled based on literature reports, internal siRNA data and SPHK expression levels, [9], [21]. Viability was monitored after 72 h of SPHK inhibition under regular culture conditions to assess direct effects on cell viability, and under serum starvation to assess the effects of SPHK inhibition under stress conditions. […] Cell death was only observed at higher concentrations (3 to 30 µM). […] Like all substrate competitive SPHK inhibitors, these compounds have a polar headgroup and a lipophilic tail, and can act as detergents at higher concentrations. […]

Colo 320 = assay: 72 h viability assay (CellTiter-Glo); format: cell-based; conditions: Homo sapiens, Colo 320 (Colon), inflection point of titration curve
Description: as §2, §3

HA-1 = assay: 72 h viability assay (CellTiter-Glo); format: cell-based; conditions: read-out: IC50 viability
Description: as §2, §3

HS294T = assay: 72 h viability assay (CellTiter-Glo); format: cell-based; conditions: Homo sapiens, Hs 294T, HS294T (Skin), inflection point of titration curve
Description: as §2, §3

HeLa = assay: 72 h viability assay (CellTiter-Glo); format: cell-based; conditions: Homo sapiens, HeLa (Cervix), inflection point of titration curve
Description: as §2, §3

LN18 = assay: 72 h viability assay (CellTiter-Glo); format: cell-based; conditions: Homo sapiens, LN-18, LN18 (Brain), inflection point of titration curve
Description: as §2, §3

LN229 = assay: 72 h viability assay (CellTiter-Glo); format: cell-based; conditions: Homo sapiens, LN-229, LN229 (Brain), inflection point of titration curve
Description: as §2, §3

Saos2 = assay: 72 h viability assay (CellTiter-Glo); format: cell-based; conditions: Homo sapiens, SAOS-2, Saos2 (Bone), inflection point of titration curve
Description: as §2, §3

UACC257 = assay: 72 h viability assay (CellTiter-Glo); format: cell-based; conditions: Homo sapiens, UACC-257, UACC257 (Skin), inflection point of titration curve
Description: as §2, §3

WM266-4 = assay: 72 h viability assay (CellTiter-Glo); format: cell-based; conditions: Homo sapiens, WM 266-4, WM266-4 (Skin), inflection point of titration curve
Description: as §2, §3

LOX = assay: 72 h viability assay (CellTiter-Glo); format: cell-based, human; conditions: LOX (Skin), inflection point of titration curve
Description: as §2
(§4) S1P has been reported to be important for tumor cell viability, and reduction of intracellular S1P levels has been associated with greater cellular sensitivity to pro-apoptotic stress, [7]. […] A panel of cell lines likely to be sensitive to SPHK inhibition was assembled based on literature reports, internal siRNA data and SPHK expression levels, [9], [21]. Viability was monitored after 72 h of SPHK inhibition under regular culture conditions to assess direct effects on cell viability, and under serum starvation to assess the effects of SPHK inhibition under stress conditions.
(§5) The IC50s reflect the inflection point of the titration curve.

panel of cell lines = assay: 72 h viability assays, summary for panel of cell lines; format: cell-based; conditions: regular culture conditions and serum starvation
Description: as §2, §4

LN229 cells = assay: 15 day colony formation assay; format: cell-based, human; conditions: concentrations up to 1 µM
Description: LN-229 cells were cultured in Dulbecco’s Modification of Eagle’s Medium (Corning® cellgro 10-013) supplement with 5%FBS and 1% P/S. On Day 1 cells were seeded on 6-well tissue culture plates at density of 800 cells per well. On Day 2 compounds were added and cells were incubated for 15 days at 37°C. Cells were then stained with Crystal violet.
The long term effect of SPHK inhibition on cell viability was studied in the glioblastoma cell line LN229. […] Concentrations of more than 3 µM led to immediate cell death due to cell lysis and prevented the formation of colonies (figure 5).
Figure 5 Effects of SPHK inhibition in colony formation assays. LN229 cells were seeded at a density of 800 cells/well in a six well plate in the presence of the indicated concentrations of SPHK inhibitor. After 15 days, cells were fixed and stained with crystal violet.

plasma levels of S1P = assay: Pharmacodynamic assay, plasma S1P levels in mice; format: in vivo
Description: (§6) For S1P measurements, plasma was extracted with 0.1% formic acid/methanol containing an internal standard (C17-S1P) and subjected to LC-MS/MS analysis. […] The method provided linear response over a concentration range of 1 to 2000 ng/ml. A separate aliquot of plasma was extracted with acetonitrile containing an internal standard (structural analog) and subjected to reversed-phase liquid chromatographic using a Shiseido UG Capcell C18, 50×2 mm analytical column (Phenomenex). MS/MS analysis was conducted on a API4000 with an electrospray interface using multiple reaction monitoring (MRM) in the positive ionization mode.
(§7) Female athymic nude mice were assigned to one of fifteen treatment groups. […] At various times after dosing (2 to 24 h), mice were sacrificed and plasma collected to determine S1P levels and compound concentrations. Data are mean ± SE (n = 5). […] S1P and drug concentration were determined by LC-MS/MS.
(§8) The inhibition of sphingosine kinase was evaluated in a pharmacodynamic assay. […] At 2, 7 and 24 hours post dose, plasma was collected and levels of S1P and plasma drug concentration were determined.

[1] = Compound plasma concentration in mice after oral gavage; format: in vivo
Description: as §6, §7, §8

[2] = system: MDA-MB-231 xenograft tumors; assay: MDA-MB-231 tumor xenograft model; format: in vivo; conditions: athymic nude mice
Description: MDA-MB-231 cells were purchased from the American Type Culture Collection (ATCC) and maintained in DMEM high glucose with 10% fetal bovine serum (FBS) and 1x-L-glutamine. Mice were injected subcutaneously with 5×10^6 cells in 30% Matrigel (BD Biosciences, San Jose, CA). […] Vehicle and compound A were administered by oral gavage daily. Taxotere was administered by intraperitoneal injection once a week. Tumor dimensions were assessed twice weekly with a Pro-Max electronic digital caliper (Sylvac, Crissier, Switzerland) and tumor volume was calculated using the formula: length x width x height and expressed as mm^3. Data are expressed as mean +/− SE (n = 7–10). Repeated-measures analysis of variance (RMANOVA) followed by Dunnett’s post hoc test for multiple comparisons was used to evaluate statistical significance of observed differences. Body weight was recorded twice weekly as an index of toxicity.
Here, athymic nude mice were implanted s.c. with human MDA-MD-231 breast cancer cells. Dosing was initiated 18 days later when the tumors had reached ∼ 200 mm^3.
Female athymic nude mice were injected with 5×10^6 MDA-MB-231 cells on day 0. […] (n = 7–10 per group); bars, SE. *, P<0.0001, compared to vehicle.

[3] = system: human melanoma cell line WM266.4; assay: Cellular SPHK activity, C17 S1P levels; conditions: WM 266-4, 2 h, read-out: IC50, inhibition of cellular SPHK activity (C17 S1P)
Description: (§9) Frozen cell pellets (1×10^6 cells) were thawed and 75 µl of methanol was added. The samples were transferred to an un-skirted 96 well PCR plate after which they were mixed to a homogeneous solution. The plate was then sealed and pulsed for 6 seconds per well (E200-S0%250 mV500 setting) on a Covaris Adaptive Focused Acoustic (AFA) cell disruptor (Covaris, Woburn, MA). 130 µl of Dichloromethane was then added to each well after which plates were incubated at room temperature for 2 hours. Post incubation, 52 µl of ddH2O was added to induce phase separation. […] 45 µl of this final sample was transferred to a 384 well plate and analyzed on a RapidfireTM (Biocius, Wakefield, MA) ultra-high throughput chromatography system interfaced with a TSQ Vantage triple stage quadrupole mass spectrometer (Thermo Scientific, Waltham, MA). […] After an aqueous wash ((80∶20) Methanol/ddH2O containing 75 mM NH4OH and 0.1% formic acid) to remove the S1P extraction components that interfere with mass spectrometry, C17-S1P was eluted ((99∶1) Methanol/ddH2O containing 0.1% formic acid) and analyzed by inline triple stage quadrupole mass spectrometry. […] C17-S1P was monitored using a selective reaction monitoring protocol which detected the loss of a phosphate molecule from the parent ion C17-S1P. […]
(§10) Two hours after addition of C17 sphingosine, cells were lysed and levels of C17 S1P were determined.

[4] = system: human breast cancer cell line MDA-MB-231; assay: Cellular SPHK activity, C17 S1P levels; conditions: MDA-MB-231, 2 h, read-out: IC50, inhibition of cellular SPHK activity (C17 S1P)
Description: as §9, §10

[5] = system: murine melanoma cell line B16F10; assay: Cellular SPHK activity, C17 S1P levels; conditions: Mus musculus, B16-F10, 2 h, read-out: IC50, inhibition of cellular SPHK activity (C17 S1P)
Description: as §9, §10

hSPHK1 = hSPHK1 (Homo sapiens, UniProt Q9NYA1); assay: Biochemical SPHK activity, 33P incorporation into S1P; conditions: biochemical assay
Description: as §1

hSPHK2 = hSPHK2 (Homo sapiens, UniProt Q9NRA0); assay: as above; conditions: biochemical assay
Description: as §1

mSPHK2 = mSPHK2 (Mus musculus, UniProt Q9JIA7); assay: as above; design: species or system murine; conditions: biochemical assay
Description: as §1

SPHK1 = system: SPHK1; design: method as in PMID 22397330; conditions: cited from earlier work
[6] = system: human melanoma cell line LOX; assay: Endogenous S1P levels 24 h after compound treatment; format: cell-based; conditions: 24 h treatment, read-out: IC50, endogenous S1P production (LOX)
Text: Several SPHK inhibitors have been reported in the literature, and have been utilized to support the rheostat theory.
as §5

Sequence of mSPHK1 (Q8CI15 whole entry): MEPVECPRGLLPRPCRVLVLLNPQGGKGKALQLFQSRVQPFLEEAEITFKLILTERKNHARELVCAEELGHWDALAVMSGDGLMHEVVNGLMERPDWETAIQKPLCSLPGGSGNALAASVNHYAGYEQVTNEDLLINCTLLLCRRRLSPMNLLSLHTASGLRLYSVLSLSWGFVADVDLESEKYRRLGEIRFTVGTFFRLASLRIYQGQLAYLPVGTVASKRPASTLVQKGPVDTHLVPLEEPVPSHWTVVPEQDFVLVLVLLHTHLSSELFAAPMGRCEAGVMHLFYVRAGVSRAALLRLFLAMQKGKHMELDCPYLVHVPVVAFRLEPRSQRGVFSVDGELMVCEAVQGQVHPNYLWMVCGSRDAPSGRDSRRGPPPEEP
Sequence of mSPHK2 (Q9JIA7 whole entry): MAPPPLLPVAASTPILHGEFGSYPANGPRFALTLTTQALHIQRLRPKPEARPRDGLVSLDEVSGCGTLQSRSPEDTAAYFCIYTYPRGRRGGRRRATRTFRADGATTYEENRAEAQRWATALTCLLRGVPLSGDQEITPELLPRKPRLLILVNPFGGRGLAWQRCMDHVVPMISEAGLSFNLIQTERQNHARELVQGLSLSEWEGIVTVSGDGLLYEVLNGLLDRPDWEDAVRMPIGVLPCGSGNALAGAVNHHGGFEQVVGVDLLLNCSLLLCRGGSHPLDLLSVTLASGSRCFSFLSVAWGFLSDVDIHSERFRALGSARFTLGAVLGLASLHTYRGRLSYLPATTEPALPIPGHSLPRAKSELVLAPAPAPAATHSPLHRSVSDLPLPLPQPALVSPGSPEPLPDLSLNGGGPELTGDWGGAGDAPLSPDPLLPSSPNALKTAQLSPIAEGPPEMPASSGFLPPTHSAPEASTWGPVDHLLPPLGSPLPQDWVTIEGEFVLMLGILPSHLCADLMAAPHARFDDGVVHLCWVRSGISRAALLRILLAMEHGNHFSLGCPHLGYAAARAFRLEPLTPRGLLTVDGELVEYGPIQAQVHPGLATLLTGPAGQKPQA
Sequence of hSPHK2 (Q9NRA0 whole entry): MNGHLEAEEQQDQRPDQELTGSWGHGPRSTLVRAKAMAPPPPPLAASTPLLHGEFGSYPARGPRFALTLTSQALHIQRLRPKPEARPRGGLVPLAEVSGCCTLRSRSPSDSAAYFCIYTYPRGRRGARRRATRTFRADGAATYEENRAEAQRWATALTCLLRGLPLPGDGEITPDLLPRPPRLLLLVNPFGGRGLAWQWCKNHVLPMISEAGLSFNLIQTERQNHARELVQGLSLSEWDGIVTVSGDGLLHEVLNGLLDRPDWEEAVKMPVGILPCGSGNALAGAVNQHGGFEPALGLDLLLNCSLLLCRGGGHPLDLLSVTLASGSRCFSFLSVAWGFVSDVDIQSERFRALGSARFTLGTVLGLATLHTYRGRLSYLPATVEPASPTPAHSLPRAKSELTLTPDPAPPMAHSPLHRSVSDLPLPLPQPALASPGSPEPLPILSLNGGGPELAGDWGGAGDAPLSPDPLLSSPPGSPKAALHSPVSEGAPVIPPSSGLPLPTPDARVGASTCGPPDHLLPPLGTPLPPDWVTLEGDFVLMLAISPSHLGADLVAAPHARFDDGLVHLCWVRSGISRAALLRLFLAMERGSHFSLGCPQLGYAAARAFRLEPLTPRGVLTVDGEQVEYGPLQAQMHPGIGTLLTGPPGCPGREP
Sequence of hSPHK1 (Q9NYA1 whole entry): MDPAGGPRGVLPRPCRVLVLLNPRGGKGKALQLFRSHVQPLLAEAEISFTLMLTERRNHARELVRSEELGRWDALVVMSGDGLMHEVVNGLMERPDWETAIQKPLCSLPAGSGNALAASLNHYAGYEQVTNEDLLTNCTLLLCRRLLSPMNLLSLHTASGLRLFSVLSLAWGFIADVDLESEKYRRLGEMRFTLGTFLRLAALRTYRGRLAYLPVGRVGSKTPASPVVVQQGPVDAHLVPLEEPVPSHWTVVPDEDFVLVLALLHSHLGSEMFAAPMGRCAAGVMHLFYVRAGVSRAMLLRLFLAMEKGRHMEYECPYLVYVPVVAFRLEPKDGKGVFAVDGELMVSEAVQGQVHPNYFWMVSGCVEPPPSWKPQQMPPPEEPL

For `OC[C@H]1C[C@@H](O)CCN1CCc1ccc(Nc2nc(-c3ccc(C(F)(F)F)cc3)cs2)cc1` [Compound A], the IC50 (mSPHK1) was 0.064 µM, the “IC50s, inhibition of SPHK activity in human cell lines” value (human cell lines) was “double digit nanomolar range” and the IC50 (A375) was 8.3 µM. For the same compound, the IC50 (Colo 320) was 5.1 µM, the IC50 (HA-1) was 6.3 µM and the IC50 (HS294T) was 6 µM. The IC50 (HeLa) was 6.4 µM, the IC50 (LN18) was 4.1 µM and the IC50 (LN229) was 4.8 µM. For the same compound, the IC50 (Saos2) was 7 µM, the IC50 (UACC257) was 4.4 µM and the IC50 (WM266-4) was 6 µM. For the same compound, the IC50 (LOX; Homo sapiens) was 4 µM, the “effect on viability at 1 µM compound” value (panel of cell lines) was “did not result in reduced viability” and the “viability in 72 h proliferation and 15 day colony formation assays” value (LN229 cells) was “viability was unchanged”. For the same compound, the “reduction of host / plasma S1P levels” value (plasma levels of S1P; 300 mg/kg oral) was “more than 70%”, the “maximum inhibition of plasma levels of S1P” value (plasma levels of S1P; oral gavage 10-300 mg/kg, at plasma exposure of 0.38 µM) was 72% and the oral bioavailability [1] was “orally bioavailable”. For the same compound, the “plasma exposure at maximum inhibition of plasma S1P” value [1] was 0.38 µM, the “effect on tumor growth in vivo” value ([2]; 300 mg/kg daily by oral gavage from day 18) was “did not lead to significant inhibition of tumor growth” and the “mice in which compound was not tolerated (deaths)” value ([2]; 300 mg/kg daily by oral gavage, cause of death unknown) was 3 out of the 10. It also gave an IC50 [3] of 0.063 µM, an IC50 [4] of 0.09 µM and an IC50 [5] of 0.25 µM.

`OC[C@H]1C[C@H](O)CN1CCCc1ccc(Nc2nc(-c3cccc(C(F)(F)F)c3)cs2)cc1` [Compound B] showed an IC50 (hSPHK1) of 0.008 µM, an IC50 (hSPHK2) of 0.06 µM and an IC50 (mSPHK1) of 0.055 µM. The IC50 (mSPHK2) was greater than 5 µM, the “IC50s, inhibition of SPHK activity in human cell lines” value (human cell lines) was “double digit nanomolar range” and the IC50 (A375) was 17.4 µM. For the same compound, the IC50 (Colo 320) was 9.4 µM, the IC50 (HA-1) was 15.5 µM and the IC50 (HS294T) was 10.1 µM. For the same compound, the IC50 (HeLa) was 14.3 µM, the IC50 (LN18) was 5.5 µM and the IC50 (LN229) was 8.7 µM. The IC50 (Saos2) was 13.5 µM, the IC50 (UACC257) was 6.5 µM and the IC50 (WM266-4) was 13.2 µM. The IC50 (LOX; Homo sapiens) was 6.2 µM, the “effect on viability at 1 µM compound” value (panel of cell lines) was “did not result in reduced viability” and the “viability in 72 h proliferation and 15 day colony formation assays” value (LN229 cells) was “viability was unchanged”. For the same compound, the IC50 [3] was 0.036 µM.

For `CCCCCc1ccc(/C=C/[C@H](O)[C@@H](CO)NC)cc1` [SK1-I], the “biochemical IC50” value (SPHK1) is given as “in the micromolar range”.

With `Oc1ccc(Nc2nc(-c3ccc(Cl)cc3)cs2)cc1` [SKII, reference compound] the IC50 (hSPHK2) was 13 µM, the IC50 (mSPHK1) was greater than 10 µM and the “IC50 (mSPHK1)” value (mSPHK1) was “too low to be detected”. It also gave an IC50 (mSPHK2) greater than 10 µM, an IC50 (LOX) of 11.3 µM and an IC50 [6] of 7.5 µM.
